This note sets out measurements from patent publication US10913710B2, “Benzene disulfonamide for the treatment of cancer” (priority 2017, dated 2021).

One data set is described as follows: in vitro. To be noted: human, Caco-2, pH 6.5. As to the method: Caco-2 Permeability Assay:
The compound concentration was measured in the receiver as well as the donor well.

In data set [1] the test system is human peripheral blood mononuclear cells (hPMPBC). As to the kind of experiment: Cytotoxicity assay with human peripheral blood mononuclear cells. In kind it is cell-based. How it is done: Cells were incubated with test substances at titrated concentrations ranging between 30 μM and 1.7 nM for 72 h. After the incubation period, the cells were fixed with 10% (wt/vol) trichloroacetic acid and stained for 30 min with sulforhodamine B (SRB) staining solution prior to removing unbound dye by washing repeatedly with 1% (vol/vol) acetic acid. The protein-bound dye is dissolved in 10 mM Tris base solution for OD (optical density) determination at 510 nm using a microplate reader.

For data set [2], the target named is RPL31 (Ribosomal Protein L31) (Homo sapiens (Human), UniProt P62899). As to the kind of experiment: Cellular thermal shift assay / thermal protein profiling in Jurkat cell lysate. Particulars: read-out: shift in melting temperature.
For data set [3], the target named is T1, PDEδ (Homo sapiens (Human), UniProt O43924). As to the kind of experiment: Fluorescence polarization competition binding assay: displacement titration of labeled Atorvastatin probe for KD. To be noted: fluorescence polarization assay; activity classes; read-out: KD. How it is done:
Example D.2: Displacement Titrations of Labeled Atorvastatin-Probe for the Determination of KD Values
Displacement Titrations of Labeled Atorvastatin-Probe for the Determination of KD Values:
The purification was followed by size exclusion gel filtration on a Superdex 75 S26/60 column using buffer A (25 mM Tris-HCl, pH 7.5, 150 mM NaCl and 3 mM DTE).
In general terms: Fluorescence polarisation rises when a labelled molecule tumbles more slowly, as on binding a larger partner.

The target of data set [4] is T1, PDEδ. As to the kind of experiment: Cellular thermal shift assay / thermal protein profiling in Jurkat cell lysate. To be noted: 1 μM.
Data set [5] addresses interaction between mCherry-PDE6δ and mCitrine-RheB (Homo sapiens (Human), UniProt O43924). As to the kind of experiment: FLIM-FRET of mCitrine-RheB and mCherry-PDE6δ interaction in living MDCK cells. In kind it is cell-based. To be noted: fit of dose-response of interacting fraction α, ± s.e.m., read-out: apparent "in-cell" KD.
The subject of another data set is MiaPaCa-2 cells. As to the kind of experiment: Real time cell analysis (RTCA) proliferation. Type of data set: cell-based, human. As to the method: (§1) Panc-TU-1, MiaPaCa-2, PANC-1 and BxPC-3 cell lines were cultured in DMEM supplemented with 10% fetal calf serum, 1% L-glutamine (PAN-Biotech) and 1% non-essential amino acids (PAN-Biotech). The cells were maintained in a humidified incubator at 37° C. and 5% CO2. For microscopy, cells were seeded in four-well Lab-Tek chambers (Thermo Scientific) in DMEM without phenol red, supplemented with 25 mM HEPES. Transfection was performed with either Effectene (Qiagen) or Lipofectamine 2000 (Invitrogen). RTCA measurements of Panc-TU-1, MiaPaCa-2, PANG-1 and BxPC-3 cell lines were performed on a Dual Plate xCELLigence instrument (Roche Applied Science, Indianapolis, Ind.). This device measures a dimensionless cell index which is based on impedance. […] After seeding, cells were allowed to settle for 15 min at room temperature before insertion into the xCELLigence instrument in a humidified incubator at 37° C. with 5% CO2. […] The impedance was measured in 15 min intervals for up to 100 h. Assays were performed in triplicates, each containing two technical duplicates. The cell index was normalized to 1 at the time point of drug administration.

For another data set, the system named is Panc-Tu-I cells. As to the kind of experiment: Real time cell analysis (RTCA) proliferation. Type of data set: cell-based, human. As to the method: as §1
Data set [6] deals with colorectal cancer cell lines DiFi, HCT-116, Hke3, Hkh2, HT29 and SW480. As to the kind of experiment: Real time cell analysis (RTCA) proliferation of colorectal cancer cell lines. Type of data set: cell-based, human.
In data set [7] the test system is mCitrine-KRas in MiaPaCa-2 cells. As to the kind of experiment: KRas localization analysis by confocal microscopy. In kind it is cell-based, human. To be noted: 5 μM; MiaPaCa-2 cells ectopically expressing mCitrine-KRas. As to the method: Panc-TU-1, MiaPaCa-2, PANC-1 and BxPC-3 cell lines were cultured in DMEM supplemented with 10% fetal calf serum, 1% L-glutamine (PAN-Biotech) and 1% non-essential amino acids (PAN-Biotech). The cells were maintained in a humidified incubator at 37° C. and 5% CO2. For microscopy, cells were seeded in four-well Lab-Tek chambers (Thermo Scientific) in DMEM without phenol red, supplemented with 25 mM HEPES. Transfection was performed with either Effectene (Qiagen) or Lipofectamine 2000 (Invitrogen). Confocal images were acquired with a confocal laser-scanning microscope (FV1000, Olympus). For detection of mCitrine-RheB and mCitrine-KRas, the sample was excited using the 488 nm wavelength of an argon laser. Fluorescence signal was collected through an oil immersion objective (×60/1.35 UPlanSApo, Olympus) and spectrally filtered by a band pass filter from 500 nm to 550 nm. For detection of mCherry-PDEδ, a 561 nm diode laser was used for excitation. The fluorescence emission was spectrally filtered by a band pass filter from 600 to 700 nm. Confocal images of cells were segmented into plasma membrane and cytoplasm whereby the plasma membrane segment contained one third of all pixels. The mean intensity of plasma membrane and cytoplasm were normalized to the total mean intensity of each cell at each time point (FIG. 4C).

In data set [8] the test system is colorectal cancer cell lines (HCT-116, Hke3, SW480, Hkh2, DiFi, HT29). As to the kind of experiment: Apoptosis / cell viability assay (7-AAD staining, flow cytometry). In kind it is cell-based, human. To be noted: all tested cell lines (Hkh2, DiFi, HT29). As to the method:
Apoptosis assays are performed on a LSR II flow cytometer (BD Bio-science). For this, cells are seeded in 6-well plates with an amount of 2×10^5 cells per well. Cells are treated with different concentrations of compound 19 (Deltasonamide 2) for 24 h. DMSO is used as a control. Subsequently, the supernatant is collected in FACS vials and the cells are washed with 1 mL PBS. Afterwards, cells are detached with 0.5 mL Accutase™ (EMD Millipore Corporation). The detached cells are resuspended in 1 mL PBS and transferred to the respective FACS vials. The vials are centrifuged at 200 g for 5 min. The supernatant is discarded and the cells are washed twice with PBS. Cell pellets are re-suspended in 100 μL PBS containing 5 μL of 7-AAD. Samples are vortexed and incubated in the dark at RT for 15 min. Afterwards, 200 μL PBS are added and the samples are transferred to fresh FACS vials through filter lids. The samples are measured within one hour after transfer using 488 nm as excitation wave length and the emission filter 695/40. The measurements are acquired and gated with the BD FACSDiva™ software.
On the technique in general: Flow cytometry measures light scatter and fluorescence of single cells or particles in a stream.

Where [9] appears, read: even at submicromolar concentrations.

As a reminder, the Papp A→B is how fast a substance crosses the layer from the apical side. As usually defined, the Papp B→A is the apparent permeability from the basolateral to the apical side of a cell layer. In the data set “in vitro”, `CNc1nccc(CN(CC2CCNCC2)S(=O)(=O)c2ccc(S(=O)(=O)N(Cc3ccc(Cl)cc3)C3CCCC3)cc2)n1` [Compound 16, N1-(4-Chlorobenzyl)-N1-cyclopentyl-N4-((2-(methylamino)pyrimidin-4-yl)methyl)-N4-(piperidin-4-ylmethyl)benzene-1,4-disulfonamide] returned an apparent permeability from apical to basolateral (Papp A→B) at 2 h, 10 µM of 1.6 ×10⁻⁶ cm/s and a Papp B→A at 2 h, 10 µM of 13.7 ×10⁻⁶ cm/s. Moreover, the “concentration up to which hPMBCs proliferation is not impaired” value in data set [1] was at least 30 µM.
For orientation: efflux ratio means a quotient of directional permeabilities that is used to spot active efflux. Consider `Nc1cc(CN(CC2CCNCC2)S(=O)(=O)c2ccc(S(=O)(=O)N(Cc3ccc(Cl)cc3)C3CCCC3)cc2)ccc1C(=O)O` [Compound 22, 2-amino-4-(((4-(N-(4-chlorobenzyl)-N-cyclopentylsulfamoyl)-N-(piperidin-4-ylmethyl)phenyl)sulfonamido)methyl)benzoic Acid], for which, in the data set “in vitro”, the Papp A→B at 2 h, 10 µM was determined as 0.9 ×10⁻⁶ cm/s; the basolateral-to-apical permeability (Papp B→A) at 2 h, 10 µM was 0.6 ×10⁻⁶ cm/s; the efflux ratio at 2 h, 10 μM was 0.6. Also, the ΔTm at 1 µM in data set [2] was found to be 3 °C. The Kd at PDEδ [3] lay in the range of 0.001 to 0.03 µM. Further, the “selectivity of protein engagement (only PDE6δ and RPL31 engaged)” value on PDEδ [4] (5492 proteins identified) is listed as “very selective inhibitor”. Besides, at PDEδ [4] ([…]), the “higher signal intensities of soluble PDEδ compared to DMSO controls” value was 26-28%.
Take `CNc1nccc(CN([C@H]2CC[C@H](N)CC2)S(=O)(=O)c2ccc(S(=O)(=O)N(Cc3ccc(Cl)cc3)C3CCCC3)cc2)n1` [Compound 19, N1-((trans)-4-aminocyclohexyl)-N4-(4-chlorobenzyl)-N4-cyclopentyl-N1-((2-(methylamino)pyrimidin-4-yl)methyl)benzene-1,4-disulfonamide]: the Kd was 0.061 ± 0.005 µM in data set [5] and 0.001 to 0.03 µM at PDEδ [3]. In addition, in the data set on MiaPaCa-2 cells (at 750 nM), the “reduction of growth rate” value is “about 50%”. Further, the “proliferation (RTCA)” value is given as “strongly reduced proliferation” with MiaPaCa-2 cells (setting [9]); “strongly reduced proliferation” in the data set on Panc-Tu-I cells (setting [9]); “strongly reduced proliferation” in data set [6] (DiFi, HCT-116, Hke3, Hkh2, HT29 and SW480, even at lower micromolar concentrations). Further, the reduction of growth entry in the data set with Panc-Tu-I cells (at 1.5 μM) is “about 50%”. In “in vitro”, the apical-to-basolateral permeability (Papp A→B) at 2 h, 10 µM is 0.9 ×10⁻⁶ cm/s. The Papp B→A at 2 h, 10 µM in “in vitro” is 2.7 ×10⁻⁶ cm/s. In the data set “in vitro”, the efflux ratio at 2 h, 10 μM worked out at 2.9. The “concentrations showing growth inhibitory effect and reduced cell viability” value in [6] (cell lines containing oncogenic KRas mutations (HCT-116, Hke3, and SW480)) was in the range of 1.5 to 3 µM. Besides, the “KRas plasma membrane localization” value in [7] was “loss of KRas plasma membrane (PM) localization”. Further, the “concentration up to which hPMBCs proliferation is not impaired” value in data set [1] is at least 30 µM. The “concentration showing unspecific toxicity” value in [8] is “above 6 μM”.
